Data on 2 compounds can be found in ChEMBL document CHEMBL1141113, “High affinity electrophilic and photoactivatable covalent endocannabinoid probes for the CB1 receptor” (J Med Chem, 2005).

One assay concerns the target Cannabinoid receptor 1 (Rattus norvegicus, UniProt P20272). The experiment in a line: Binding affinity towards rat brain cannabinoid receptor 1 in the presence of PMSF upon incubation for 15 min at 4 degree C in pH 7.4 using [3H]CP-55940.
Another assay addresses Cannabinoid receptor 2 (Mus musculus, UniProt P47936). As to the kind of experiment: Binding affinity towards mouse spleen cannabinoid receptor 2 in the presence of PMSF upon incubation for 15 min at 4 degree C in pH 7.4 using [3H]CP-55940. The class given is tissue-based.

As usually defined, the Ki is a measure of affinity in units of concentration, obtained from inhibition or displacement.

Cannabinoid receptor 2, sequence (P47936 whole entry): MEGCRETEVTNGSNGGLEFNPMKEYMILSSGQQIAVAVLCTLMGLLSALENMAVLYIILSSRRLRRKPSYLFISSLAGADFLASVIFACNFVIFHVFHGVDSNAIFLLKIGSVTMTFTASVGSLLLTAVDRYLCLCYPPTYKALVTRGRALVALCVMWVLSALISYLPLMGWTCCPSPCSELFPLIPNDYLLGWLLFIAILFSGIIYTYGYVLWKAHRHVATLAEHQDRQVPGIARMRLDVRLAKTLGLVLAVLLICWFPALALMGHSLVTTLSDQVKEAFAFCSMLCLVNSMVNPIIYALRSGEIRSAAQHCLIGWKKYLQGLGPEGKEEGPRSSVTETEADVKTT
Cannabinoid receptor 1, sequence (P20272 whole entry): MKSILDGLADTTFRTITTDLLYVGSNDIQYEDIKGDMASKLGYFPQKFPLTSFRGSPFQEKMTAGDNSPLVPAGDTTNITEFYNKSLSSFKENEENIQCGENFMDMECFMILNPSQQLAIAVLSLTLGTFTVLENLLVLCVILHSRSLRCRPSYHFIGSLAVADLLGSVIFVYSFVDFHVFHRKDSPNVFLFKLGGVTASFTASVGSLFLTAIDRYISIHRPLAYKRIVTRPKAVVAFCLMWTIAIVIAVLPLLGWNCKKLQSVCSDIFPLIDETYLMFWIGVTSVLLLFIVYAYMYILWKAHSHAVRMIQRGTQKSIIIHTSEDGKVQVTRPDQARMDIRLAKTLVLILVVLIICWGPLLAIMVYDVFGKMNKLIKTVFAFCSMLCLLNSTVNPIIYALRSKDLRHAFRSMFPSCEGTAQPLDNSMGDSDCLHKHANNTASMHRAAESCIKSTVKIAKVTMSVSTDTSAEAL

Take `O=C(CCC/C=C\C/C=C\C/C=C\C/C=C\CCCCCN=C=S)NC1CC1`: the Ki was 1.3 nM at Cannabinoid receptor 1 and 48.5 nM at Cannabinoid receptor 2.
For `CCCCC/C=C\C/C=C\C/C=C\C/C=C\CCCC(=O)NC1CC1`, in that order: 2.7 nM and 157 nM.
